According to US20080299587A1, “METHODS OF MEASURING INHIBITION OF PLATELET AGGREGATION BY THROMBIN RECEPTOR ANTAGONISTS” (priority 2007, published 2008):
Read-outs that look alike come from different tables or passages of the source.

How the values were obtained:
[1] = target: T1, platelet thrombin receptors (Homo sapiens, UniProt P25116); conditions: receptors activated by either thrombin or TRAP-1; cited from earlier work
T1 construct: host or cells: platelets
T1 sequence (P25116 22-425): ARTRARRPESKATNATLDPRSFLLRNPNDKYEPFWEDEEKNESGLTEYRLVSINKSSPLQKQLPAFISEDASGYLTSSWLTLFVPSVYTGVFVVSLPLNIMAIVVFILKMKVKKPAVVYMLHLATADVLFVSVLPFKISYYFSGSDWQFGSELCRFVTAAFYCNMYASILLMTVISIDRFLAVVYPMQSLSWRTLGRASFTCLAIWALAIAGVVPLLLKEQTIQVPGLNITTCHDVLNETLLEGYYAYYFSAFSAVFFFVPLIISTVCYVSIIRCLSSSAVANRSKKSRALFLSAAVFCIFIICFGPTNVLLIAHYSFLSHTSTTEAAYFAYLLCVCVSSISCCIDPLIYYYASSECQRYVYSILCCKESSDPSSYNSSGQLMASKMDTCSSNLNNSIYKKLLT

[2] = Phase II clinical studies, treated patients; cited from earlier work
[3] = target: T2, PAR-1 thrombin receptor (Homo sapiens, UniProt P25116); conditions: cited from earlier work
T2 sequence (P25116 22-425): T1 sequence (P25116 22-425)

[4] = tested on: platelet aggregation; conditions: blood samples from patients undergoing non-urgent PCI; cited from earlier work
[5] = tested on: platelets in whole blood activated by PAR-1 thrombin receptor activating peptide (TRAP-1); assay: VERIFYNOW IIb/IIIa Assay, dose-dependent platelet inhibition with TRAP-1 as platelet activator; type: cell-based, human; conditions: TRAP-1 3.7 μM; for % Inhibition, Average: Average of four human donors; for % Inhibition (platelet inhibition relative to baseline): whole blood, 30 min 37°C
Text: The VERIFYNOW™ System instrument is a turbidometric based optical detection system that measures platelet induced aggregation as an increase in light transmittance. The system includes an analyzer, disposable cartridge and controls. The cartridge contains reagents based on microparticle agglutination technology. The quality control system includes an electronic control, two levels of assayed “wet” controls (WQC), an in-cartridge humidity sensor, an in-packaging temperature indicator, and a test for concurrence of two assay channels. […] For use in the present methods the test cartridge of the system contains a lyophilized preparation comprising particles with passively bound GPIIb/IIIa receptor ligand, a thrombin receptor activator, and buffer. The patient sample is usually citrated whole blood, which is automatically dispensed from the blood collection tube into the cartridge by the analyzer, with no blood handling required by the user. The interaction is monitored by the infrared absorbency characteristics of the particles. As the particles interact with the platelets, the agglutination of the particles is measured through the optical system of the VERIFYNOW™ instrument. The agglutination is detected as an increase in the transmission of infrared light through the sample.
An experiment was conducted to determine dose-dependent platelet inhibition by the PAR-1 antagonist E5555 (Eisai Co., Ltd.) using the VERIFYNOW™ IIb/IIIa Assay (Accumetrics, Inc., San Diego, Calif.) and PAR-1 thrombin receptor activating peptide (TRAP-1) as the platelet activator.
Dose response testing was performed with TRAP-1 at 3.7 μM. E5555 was used at final concentrations of 30 ng/ml, 10 ng/ml, 5.0 ng/ml and 1.0 ng/ml. 20 μL of each stock solution was spiked into 2.0 ml of whole blood (1:100 dilution) and mixed carefully to prevent hemolysis. After mixing, the blood samples were incubated for 30 min at 37° C. prior to platelet inhibition test.
Blood samples from four human donors were run in duplicate at baseline and for each of the four E5555 concentrations. As one might have expected, there was donor-to-donor variability in the levels of platelet inhibition measured at a given concentration of E5555. Based on the expected levels of inhibition at each concentration of E5555 provided, the actual results were on average slightly lower than expected across the four donors.

[6] = guinea pig thrombosis model; cited from earlier work
[7] = tested on: IL-6, CD40 ligand and P-selectin; conditions: human cells; cited from earlier work
[8] = rabbit subarachnoid hemorrhage model; cited from earlier work
[9] = tested on: platelets in whole blood activated by PAR-1 thrombin receptor activating peptide (TRAP-1); conditions: expected level of inhibition provided, cited from earlier work
[10] = rat balloon injury model; cited from earlier work

For “Phe-Leu-Leu-Arg-Asn (FLLRN; printed: Phe-Leu-Leu-Arg-Asn) [truncated TRAP-1 pentapeptide]”, the “antagonism of platelet thrombin receptors” value [1] is given as “weak antagonist”.
In the case of `CCOC(=O)N[C@@H]1CC[C@@H]2[C@@H](C1)C[C@H]1C(=O)O[C@H](C)[C@H]1[C@H]2/C=C/c1ccc(-c2cccc(F)c2)cn1` [SCH 530348], the “bleeding time and coagulation times” value [2] is listed as “no increase in bleeding time or prolongation in coagulation times”, the “inhibition of the PAR-1 thrombin receptor” value [3] is listed as “potent inhibitor” and the “inhibition of platelet aggregation” value [4] is listed as “sustained, dose-dependent, specific agonist-induced inhibition of platelet aggregation”.
For `CCOc1cc2c(c(F)c1OCC)C(=N)N(CC(=O)c1cc(N3CCOCC3)c(OC)c(C(C)(C)C)c1)C2` [E5555], the “% Inhibition, Average” value ([5]; 1 ng/ml E5555) was 5%, the “% Inhibition, Average” value ([5]; 5 ng/ml E5555) was 30% and the “% Inhibition, Average” value ([5]; 10 ng/ml E5555) was 57%. For the same compound, the “% Inhibition, Average” value ([5]; 30 ng/ml E5555) was 86%, the “% Inhibition (platelet inhibition relative to baseline)” value ([5]; Donor ID: 60, 1 ng/ml E5555) was 7% and the “% Inhibition (platelet inhibition relative to baseline)” value ([5]; Donor ID: 60, 5 ng/ml E5555) was 17%. For the same compound, the “% Inhibition (platelet inhibition relative to baseline)” value ([5]; Donor ID: 60, 10 ng/ml E5555) was 46%, the “% Inhibition (platelet inhibition relative to baseline)” value ([5]; Donor ID: 60, 30 ng/ml E5555) was 82% and the “% Inhibition (platelet inhibition relative to baseline)” value ([5]; Donor ID: 75, 1 ng/ml E5555) was −1%. For the same compound, the “% Inhibition (platelet inhibition relative to baseline)” value ([5]; Donor ID: 75, 5 ng/ml E5555) was 15%, the “% Inhibition (platelet inhibition relative to baseline)” value ([5]; Donor ID: 75, 10 ng/ml E5555) was 39% and the “% Inhibition (platelet inhibition relative to baseline)” value ([5]; Donor ID: 75, 30 ng/ml E5555) was 78%. The “% Inhibition (platelet inhibition relative to baseline)” value ([5]; Donor ID: 126, 1 ng/ml E5555) was 5%, the “% Inhibition (platelet inhibition relative to baseline)” value ([5]; Donor ID: 126, 5 ng/ml E5555) was 51% and the “% Inhibition (platelet inhibition relative to baseline)” value ([5]; Donor ID: 126, 10 ng/ml E5555) was 77%. The “% Inhibition (platelet inhibition relative to baseline)” value ([5]; Donor ID: 126, 30 ng/ml E5555) was 97%, the “% Inhibition (platelet inhibition relative to baseline)” value ([5]; Donor ID: 137, 1 ng/ml E5555) was 7% and the “% Inhibition (platelet inhibition relative to baseline)” value ([5]; Donor ID: 137, 5 ng/ml E5555) was 35%. For the same compound, the “% Inhibition (platelet inhibition relative to baseline)” value ([5]; Donor ID: 137, 10 ng/ml E5555) was 66%, the “% Inhibition (platelet inhibition relative to baseline)” value ([5]; Donor ID: 137, 30 ng/ml E5555) was 88% and the anti-thrombotic effect [6] was “anti-thrombotic effect”. The “effect on thrombin-induced release or expression of inflammatory markers (IL-6, CD40 ligand, P-selectin)” value [7] was “inhibitory effects”, the “effect on thrombin-induced contractile response” value [8] was “inhibitory effects” and the “% Inhibition, Expected” value ([9]; 1 ng/ml E5555) was 10-50%. The “% Inhibition, Expected” value ([9]; 5 ng/ml E5555) was 40-80%, the “% Inhibition, Expected” value ([9]; 10 ng/ml E5555) was 70-100% and the “% Inhibition, Expected” value ([9]; 30 ng/ml E5555) was 100%. The “effect on neointima hyperplasia” value [10] was “inhibitory effects”.
